Reference: ChEMBL document CHEMBL4028801, “A multifactorial approach to hepatobiliary transporter assessment enables improved therapeutic compound development” (Toxicol Sci, 2013)

Legend:
[1] = AUC in human at 0.5 mg, po QD after 24 hrs; assay type: ADME, organism-based; design: time < 24 hr, dose 0.5 mg, route oral; details: in vivo
[2] = Drug concentration at steady state in human at 0.5 mg, po QD after 24 hrs; assay type: ADME, organism-based; details: in vivo, read-out: Css
[3] = biological target: Bile salt export pump (Homo sapiens, UniProt O95342); experiment: Inhibition of human BSEP overexpressed in Sf9 cell membrane vesicles assessed as uptake of [3H]-taurocholate in presence of ATP measured after 15 to 20 mins by membrane vesicle transport assay; assay type: ADME, cell-based
[4] = biological target: ATP-binding cassette sub-family C member 2 (Homo sapiens, UniProt Q92887); experiment: Inhibition of human MRP2 overexpressed in Sf9 cell membrane vesicles assessed as uptake of [3H]-estradiol-17beta-D-glucuronide in presence of ATP and GSH measured after 20 mins by membrane vesicle transport assay
[5] = biological target: ATP-binding cassette sub-family C member 3 (Homo sapiens, UniProt O15438); experiment: Inhibition of human MRP3 overexpressed in Sf9 insect cell membrane vesicles assessed as uptake of [3H]-estradiol-17beta-D-glucuronide in presence of ATP and GSH measured after 10 mins by membrane vesicle transport assay; assay type: ADME, cell-based
[6] = Ratio of drug concentration at steady state in human at 0.5 mg, po QD after 24 hrs to IC50 for human BSEP overexpressed in Sf9 insect cells; assay type: ADME, organism-based; details: in vivo
[7] = biological target: T1, ATP-binding cassette sub-family C member 4 (Homo sapiens, UniProt O15439); experiment: Inhibition of human MRP4 overexpressed in Sf9 cell membrane vesicles assessed as uptake of [3H]-estradiol-17beta-D-glucuronide in presence of ATP and GSH measured after 20 mins by membrane vesicle transport assay; assay type: ADME, cell-based
T1 sequence (O15439 whole entry): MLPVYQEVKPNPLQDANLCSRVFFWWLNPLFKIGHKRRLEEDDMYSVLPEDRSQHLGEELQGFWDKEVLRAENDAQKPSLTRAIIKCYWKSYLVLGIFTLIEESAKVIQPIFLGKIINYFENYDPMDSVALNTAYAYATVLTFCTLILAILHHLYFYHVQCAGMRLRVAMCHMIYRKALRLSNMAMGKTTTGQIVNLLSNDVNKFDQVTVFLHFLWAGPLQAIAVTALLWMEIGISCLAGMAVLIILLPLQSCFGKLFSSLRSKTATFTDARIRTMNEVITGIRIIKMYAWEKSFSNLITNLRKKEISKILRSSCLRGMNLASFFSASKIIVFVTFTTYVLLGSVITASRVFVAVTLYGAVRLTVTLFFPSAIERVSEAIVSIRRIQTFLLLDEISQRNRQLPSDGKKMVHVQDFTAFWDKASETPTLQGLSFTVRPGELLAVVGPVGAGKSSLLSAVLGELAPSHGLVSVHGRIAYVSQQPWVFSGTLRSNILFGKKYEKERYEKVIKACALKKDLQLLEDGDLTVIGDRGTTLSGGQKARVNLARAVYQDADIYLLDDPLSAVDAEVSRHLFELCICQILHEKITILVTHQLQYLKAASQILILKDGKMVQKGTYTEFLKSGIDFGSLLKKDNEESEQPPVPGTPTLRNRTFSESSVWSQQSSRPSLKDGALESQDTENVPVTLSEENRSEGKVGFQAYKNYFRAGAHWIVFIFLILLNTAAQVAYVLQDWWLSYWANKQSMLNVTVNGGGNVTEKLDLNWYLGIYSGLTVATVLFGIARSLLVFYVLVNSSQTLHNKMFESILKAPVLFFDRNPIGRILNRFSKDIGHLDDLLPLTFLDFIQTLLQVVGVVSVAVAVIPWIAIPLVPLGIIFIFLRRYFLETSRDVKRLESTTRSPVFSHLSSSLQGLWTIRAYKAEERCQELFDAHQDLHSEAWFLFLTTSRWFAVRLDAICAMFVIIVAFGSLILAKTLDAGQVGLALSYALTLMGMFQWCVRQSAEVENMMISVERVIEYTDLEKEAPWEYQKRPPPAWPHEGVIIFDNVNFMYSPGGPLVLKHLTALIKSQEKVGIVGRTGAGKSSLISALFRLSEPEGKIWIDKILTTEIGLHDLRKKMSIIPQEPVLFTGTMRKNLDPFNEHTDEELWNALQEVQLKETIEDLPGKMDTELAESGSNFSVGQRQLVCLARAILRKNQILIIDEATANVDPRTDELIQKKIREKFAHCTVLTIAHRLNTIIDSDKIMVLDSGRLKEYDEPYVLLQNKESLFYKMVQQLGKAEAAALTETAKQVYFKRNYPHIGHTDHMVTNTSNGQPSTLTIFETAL

[8] = Ratio of drug concentration at steady state in human at 2.5 to 10 mg, po QD after 24 hrs to IC50 for human BSEP overexpressed in Sf9 insect cells; assay type: ADME, organism-based; details: in vivo
[9] = AUC in human at 2.5 to 10 mg, po QD after 24 hrs; assay type: ADME, organism-based; details: in vivo
[10] = Drug concentration at steady state in human at 2.5 to 10 mg, po QD after 24 hrs; assay type: ADME, organism-based; details: in vivo, read-out: Css
[11] = AUC in human at 2.5 to 20 mg, po QD after 24 hrs; assay type: ADME, organism-based; details: in vivo
[12] = Drug concentration at steady state in human at 2.5 to 20 mg, po QD after 24 hrs; assay type: ADME, organism-based; details: in vivo, read-out: Css
[13] = Ratio of drug concentration at steady state in human at 2.5 to 20 mg, po QD after 24 hrs to IC50 for human BSEP overexpressed in Sf9 insect cells; assay type: ADME, organism-based; details: in vivo
[14] = Ratio of drug concentration at steady state in human at 1.5 ug administered as 1 drop intraocularly QD after 24 hrs to IC50 for human BSEP overexpressed in Sf9 insect cells; assay type: ADME; details: in vivo, topical_or_ocular
[15] = Drug concentration at steady state in human at 1.5 ug administered as 1 drop intraocularly QD after 24 hrs; assay type: ADME; details: in vivo, topical or ocular, read-out: Css
[16] = AUC in human at 1.5 ug administered as 1 drop intraocularly QD after 24 hrs; assay type: ADME; design: dose 1.5 ug, time < 24 hr, route intraocular; details: in vivo, topical or ocular
[17] = clinical; details: human, in vivo, po, 10 mg
[18] = Drug concentration at steady state in human at 10 mg, po QD after 24 hrs; details: in vivo
[19] = AUC in human at 5 to 10 mg, po QD after 24 hrs; assay type: ADME, organism-based; details: in vivo
[20] = Ratio of drug concentration at steady state in human at 5 to 10 mg, po QD after 24 hrs to IC50 for human BSEP overexpressed in Sf9 insect cells; assay type: ADME, organism-based; details: in vivo
[21] = Drug concentration at steady state in human at 5 to 10 mg, po QD after 24 hrs; assay type: ADME, organism-based; details: in vivo, read-out: Css
[22] = Ratio of drug concentration at steady state in human at 5 to 10 mg, po QD after 24 hrs to IC50 for human MRP4 overexpressed in Sf9 insect cells; assay type: ADME, organism-based; details: in vivo
[23] = clinical; details: human, in vivo, po
[24] = system: Homo sapiens; experiment: Drug concentration at steady state in human at 0.01 to 0.04 mg/kg, po after 24 hrs; assay type: ADME, organism-based; details: in vivo
[25] = Ratio of drug concentration at steady state in human at 20 to 60 mg, po QD after 24 hrs to IC50 for human BSEP overexpressed in Sf9 insect cells; assay type: ADME, organism-based; details: in vivo
[26] = Ratio of drug concentration at steady state in human at 20 to 60 mg, po QD after 24 hrs to IC50 for human MRP4 overexpressed in Sf9 insect cells; assay type: ADME, organism-based; details: in vivo
[27] = Drug concentration at steady state in human at 20 to 60 mg, po QD after 24 hrs; assay type: ADME, organism-based; details: in vivo, read-out: Css
[28] = AUC in human at 20 to 60 mg, po QD after 24 hrs; assay type: ADME, organism-based; details: in vivo
[29] = Drug concentration at steady state in human at 5 to 30 mg, po QD after 24 hrs; assay type: ADME, organism-based; details: in vivo, read-out: Css
[30] = AUC in human at 5 to 30 mg, po QD after 24 hrs; assay type: ADME, organism-based; details: in vivo
[31] = Drug concentration in human at steady state at 1% applied topically BID after 12 hrs; assay type: ADME; details: topical or ocular, read-out: Css
[32] = Ratio of drug concentration at steady state at 1% applied topically BID after 12 hrs to IC50 for human BSEP overexpressed in Sf9 insect cells; assay type: ADME; details: topical_or_ocular
[33] = AUC in human at 1% applied topically BID after 12 hrs; assay type: ADME; design: time < 12 hr; details: topical or ocular
[34] = Ratio of drug concentration at steady state in human at 0.1 to 1 mg, po QD after 24 hrs to IC50 for human MRP2 overexpressed in Sf9 insect cells; assay type: ADME, organism-based; details: in vivo
[35] = AUC in human at 0.1 to 1 mg, po QD after 24 hrs; assay type: ADME, organism-based; details: in vivo
[36] = Ratio of drug concentration at steady state in human at 0.1 to 1 mg, po QD after 24 hrs to IC50 for human BSEP overexpressed in Sf9 insect cells; assay type: ADME, organism-based; details: in vivo
[37] = Drug concentration at steady state in human at 0.1 to 1 mg, po QD after 24 hrs; assay type: ADME, organism-based; details: in vivo, read-out: Css
[38] = Drug concentration at steady state in human at 5 to 80 mg, po QD after 24 hrs; assay type: ADME, organism-based; details: in vivo, read-out: Css
[39] = AUC in human at 5 to 80 mg, po QD after 24 hrs; assay type: ADME, organism-based; details: in vivo

ATP-binding cassette sub-family C member 2, sequence (Q92887 whole entry): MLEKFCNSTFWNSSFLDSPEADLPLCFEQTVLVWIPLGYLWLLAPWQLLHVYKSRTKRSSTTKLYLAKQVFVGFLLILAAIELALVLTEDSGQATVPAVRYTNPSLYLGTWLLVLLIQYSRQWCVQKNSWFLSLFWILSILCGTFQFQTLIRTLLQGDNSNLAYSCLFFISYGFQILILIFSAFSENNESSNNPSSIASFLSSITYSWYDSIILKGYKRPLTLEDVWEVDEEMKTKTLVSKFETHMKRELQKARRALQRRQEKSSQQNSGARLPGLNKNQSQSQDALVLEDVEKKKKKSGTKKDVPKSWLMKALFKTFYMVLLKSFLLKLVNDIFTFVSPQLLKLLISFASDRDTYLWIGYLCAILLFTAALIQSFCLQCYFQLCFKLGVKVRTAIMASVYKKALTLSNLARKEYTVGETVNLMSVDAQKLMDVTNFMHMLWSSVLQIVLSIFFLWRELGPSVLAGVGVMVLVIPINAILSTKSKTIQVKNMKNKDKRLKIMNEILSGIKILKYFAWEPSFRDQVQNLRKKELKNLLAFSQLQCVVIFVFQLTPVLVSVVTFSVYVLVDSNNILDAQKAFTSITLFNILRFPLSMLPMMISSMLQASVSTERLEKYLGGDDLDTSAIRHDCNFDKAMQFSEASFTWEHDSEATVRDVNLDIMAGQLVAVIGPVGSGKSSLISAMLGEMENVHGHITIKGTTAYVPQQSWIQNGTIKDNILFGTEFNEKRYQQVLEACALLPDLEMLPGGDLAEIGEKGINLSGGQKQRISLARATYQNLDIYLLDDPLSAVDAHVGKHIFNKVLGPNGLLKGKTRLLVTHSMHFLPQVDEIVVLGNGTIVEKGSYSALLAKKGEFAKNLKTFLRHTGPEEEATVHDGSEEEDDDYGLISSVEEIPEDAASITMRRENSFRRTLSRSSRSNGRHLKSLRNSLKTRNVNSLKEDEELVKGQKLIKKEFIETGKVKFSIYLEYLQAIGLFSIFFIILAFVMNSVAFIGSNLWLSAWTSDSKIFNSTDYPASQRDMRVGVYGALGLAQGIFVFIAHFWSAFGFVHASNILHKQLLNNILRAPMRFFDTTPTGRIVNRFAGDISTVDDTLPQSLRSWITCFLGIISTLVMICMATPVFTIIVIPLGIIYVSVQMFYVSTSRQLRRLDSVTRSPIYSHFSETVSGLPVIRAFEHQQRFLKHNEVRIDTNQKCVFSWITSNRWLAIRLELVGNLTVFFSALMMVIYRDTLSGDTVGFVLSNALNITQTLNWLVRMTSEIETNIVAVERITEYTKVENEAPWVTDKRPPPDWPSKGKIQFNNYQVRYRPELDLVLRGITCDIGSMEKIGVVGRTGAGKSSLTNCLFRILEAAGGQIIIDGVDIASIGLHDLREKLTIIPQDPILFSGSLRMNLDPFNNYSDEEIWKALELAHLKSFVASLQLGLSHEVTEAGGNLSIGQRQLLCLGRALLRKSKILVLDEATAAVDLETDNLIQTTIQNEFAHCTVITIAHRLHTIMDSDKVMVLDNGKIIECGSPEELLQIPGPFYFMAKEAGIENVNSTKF
ATP-binding cassette sub-family C member 3, sequence (O15438 whole entry): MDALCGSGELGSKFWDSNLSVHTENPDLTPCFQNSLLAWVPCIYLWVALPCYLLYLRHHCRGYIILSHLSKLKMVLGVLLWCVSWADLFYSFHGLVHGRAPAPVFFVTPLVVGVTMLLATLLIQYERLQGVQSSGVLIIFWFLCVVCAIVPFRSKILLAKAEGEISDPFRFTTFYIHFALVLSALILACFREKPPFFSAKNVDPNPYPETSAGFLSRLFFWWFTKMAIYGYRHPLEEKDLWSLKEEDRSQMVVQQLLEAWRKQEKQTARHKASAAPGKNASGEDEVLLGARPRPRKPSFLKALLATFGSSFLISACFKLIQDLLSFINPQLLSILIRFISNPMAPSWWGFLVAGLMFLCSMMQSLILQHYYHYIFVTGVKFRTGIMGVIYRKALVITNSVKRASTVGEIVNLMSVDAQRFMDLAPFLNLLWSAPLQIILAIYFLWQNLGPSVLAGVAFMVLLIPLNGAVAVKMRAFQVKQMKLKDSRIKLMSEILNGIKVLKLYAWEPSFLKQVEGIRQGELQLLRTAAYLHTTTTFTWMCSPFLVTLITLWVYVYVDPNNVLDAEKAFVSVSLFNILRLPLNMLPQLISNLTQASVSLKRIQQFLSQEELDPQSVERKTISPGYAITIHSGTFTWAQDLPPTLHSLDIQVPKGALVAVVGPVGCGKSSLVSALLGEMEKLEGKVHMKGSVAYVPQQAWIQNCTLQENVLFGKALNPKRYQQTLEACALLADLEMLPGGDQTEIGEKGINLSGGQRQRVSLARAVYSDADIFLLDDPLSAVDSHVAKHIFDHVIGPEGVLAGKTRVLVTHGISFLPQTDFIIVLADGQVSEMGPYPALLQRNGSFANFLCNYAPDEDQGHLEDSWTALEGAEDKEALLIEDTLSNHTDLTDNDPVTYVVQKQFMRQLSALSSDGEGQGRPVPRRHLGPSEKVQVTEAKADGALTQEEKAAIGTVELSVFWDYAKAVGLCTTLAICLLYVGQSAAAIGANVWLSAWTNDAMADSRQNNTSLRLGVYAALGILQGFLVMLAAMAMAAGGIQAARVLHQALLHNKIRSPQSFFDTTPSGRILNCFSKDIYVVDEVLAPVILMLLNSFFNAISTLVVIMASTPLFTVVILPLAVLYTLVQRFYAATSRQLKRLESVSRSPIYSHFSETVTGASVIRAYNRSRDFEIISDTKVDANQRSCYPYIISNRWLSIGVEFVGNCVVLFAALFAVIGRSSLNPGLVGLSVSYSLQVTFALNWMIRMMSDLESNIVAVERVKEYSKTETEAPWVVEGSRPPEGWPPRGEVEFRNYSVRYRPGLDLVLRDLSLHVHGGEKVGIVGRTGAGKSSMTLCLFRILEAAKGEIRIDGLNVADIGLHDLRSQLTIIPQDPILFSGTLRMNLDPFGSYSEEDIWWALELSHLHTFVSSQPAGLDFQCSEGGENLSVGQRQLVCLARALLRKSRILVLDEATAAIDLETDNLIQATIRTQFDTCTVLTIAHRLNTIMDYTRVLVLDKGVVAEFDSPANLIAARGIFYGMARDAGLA
Bile salt export pump, sequence (O95342 whole entry): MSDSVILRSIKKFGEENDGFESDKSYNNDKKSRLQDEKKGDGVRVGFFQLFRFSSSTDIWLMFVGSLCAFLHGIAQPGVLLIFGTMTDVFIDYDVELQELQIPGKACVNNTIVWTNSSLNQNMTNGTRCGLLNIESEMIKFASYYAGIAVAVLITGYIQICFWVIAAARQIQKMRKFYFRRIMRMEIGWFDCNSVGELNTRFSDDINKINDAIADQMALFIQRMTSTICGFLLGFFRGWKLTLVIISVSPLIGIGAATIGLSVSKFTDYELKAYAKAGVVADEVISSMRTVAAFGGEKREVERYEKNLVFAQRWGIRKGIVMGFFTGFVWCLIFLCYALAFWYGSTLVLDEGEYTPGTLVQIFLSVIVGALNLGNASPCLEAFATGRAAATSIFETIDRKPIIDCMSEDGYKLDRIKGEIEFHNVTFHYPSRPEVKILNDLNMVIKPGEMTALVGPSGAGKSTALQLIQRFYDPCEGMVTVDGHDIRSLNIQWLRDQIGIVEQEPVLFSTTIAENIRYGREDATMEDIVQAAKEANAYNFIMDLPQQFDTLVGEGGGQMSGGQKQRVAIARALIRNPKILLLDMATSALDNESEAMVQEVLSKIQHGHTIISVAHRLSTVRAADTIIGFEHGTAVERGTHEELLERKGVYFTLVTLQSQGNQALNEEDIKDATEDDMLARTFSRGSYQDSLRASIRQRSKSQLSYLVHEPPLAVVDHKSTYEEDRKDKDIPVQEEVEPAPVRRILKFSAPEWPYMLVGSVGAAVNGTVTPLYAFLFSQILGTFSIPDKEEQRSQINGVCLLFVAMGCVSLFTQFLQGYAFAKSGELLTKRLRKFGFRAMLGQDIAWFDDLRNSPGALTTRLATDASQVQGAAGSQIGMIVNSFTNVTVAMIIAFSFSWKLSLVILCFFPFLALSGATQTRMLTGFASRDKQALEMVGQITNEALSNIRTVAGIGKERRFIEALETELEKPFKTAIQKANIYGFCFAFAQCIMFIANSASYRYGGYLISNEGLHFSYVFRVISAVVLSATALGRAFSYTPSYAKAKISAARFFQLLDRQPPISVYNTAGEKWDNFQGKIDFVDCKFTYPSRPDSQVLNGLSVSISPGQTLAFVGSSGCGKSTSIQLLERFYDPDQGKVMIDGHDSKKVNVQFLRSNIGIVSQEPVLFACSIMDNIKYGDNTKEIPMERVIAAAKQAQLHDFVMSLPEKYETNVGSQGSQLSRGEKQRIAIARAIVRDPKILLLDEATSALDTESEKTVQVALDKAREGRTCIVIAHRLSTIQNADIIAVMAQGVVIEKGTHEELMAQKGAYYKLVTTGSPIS

Row | SMILES | IC50 [3] [µM] | IC50 [4] [µM] | IC50 [5] [µM] | IC50 [7] [µM] | further results
1 | C[C@]12C=CC(=O)N[C@@H]1CC[C@@H]1[C@@H]2CC[C@]2(C)[C@@H](C(=O)Nc3cc(C(F)(F)F)ccc3C(F)(F)F)CC[C@@H]12 [DUTASTERIDE] | 29.8 | > 133 | > 133 | > 133 | AUC at 24 h [1]: 0.078 µM·h; concentration at 24 h [2]: 3 nM; Ratio [6]: 0.00011
2 | CCOC(=O)C1=C(C)NC(C)=C(C(=O)OC)C1c1cccc(Cl)c1Cl (stereo unspecified) [FELODIPINE] | 69.7 | > 133 | > 133 | > 133 | Ratio [8]: 0.00006; AUC at 24 h [9]: 0.107 µM·h; concentration at 24 h [10]: 4 nM
3 | COC(=O)C1=C(C)NC(C)=C(C(=O)OC(C)C)C1c1cccc2nonc12 (stereo unspecified) [ISRADIPINE] | 28 | > 133 | > 133 | > 133 | AUC at 24 h [11]: 0.197 µM·h; concentration at 24 h [12]: 8 nM; Ratio [13]: 0.0003
4 | CC(C)OC(=O)CCC/C=C\C[C@@H]1[C@@H](CC[C@@H](O)CCc2ccccc2)[C@H](O)C[C@@H]1O [LATANOPROST] | 12.9 | > 133 | > 133 | > 133 | Ratio [14]: 0.00015; concentration at 24 h [15]: 2 nM; AUC at 24 h [16]: 0.047 µM·h
5 | CCOC(=O)N1CCC(=C2c3ccc(Cl)cc3CCc3cccnc32)CC1 [LORATADINE] | 12 | > 133 | > 133 | > 133 | AUC at 24 h [17]: 0.029 µM·h; concentration at 24 h [18]: 1 nM
6 | CC(=O)O[C@]1(C(C)=O)CC[C@H]2[C@@H]3C[C@H](C)C4=CC(=O)CC[C@]4(C)[C@H]3CC[C@@]21C [MEDROXYPROGESTERONE ACETATE] | 15.7 | > 133 | > 133 | 22.5 | AUC at 24 h [19]: 0.016 µM·h; Ratio [20]: 0.00004; concentration at 24 h [21]: 1 nM; Ratio [22]: 0
7 | Cc1ncc2n1-c1ccc(Cl)cc1C(c1ccccc1F)=NC2 [MIDAZOLAM] |  |  |  |  | AUC at 24 h [23]: 0.369 µM·h; Css [24]: 15 nM
8 | COC(=O)C1=C(C)NC(C)=C(C(=O)OCC(C)C)C1c1ccccc1[N+](=O)[O-] (stereo unspecified) [NISOLDIPINE] | 33 | > 133 | > 133 | 16.5 | Ratio [25]: 0.00017; Ratio [26]: 0; concentration at 24 h [27]: 6 nM; AUC at 24 h [28]: 0.134 µM·h
9 | CCN(CC)CC#CCOC(=O)C(O)(c1ccccc1)C1CCCCC1 (stereo unspecified) [OXYBUTYNIN] |  | > 133 | > 133 | > 133 | concentration at 24 h [29]: 2 nM; AUC at 24 h [30]: 0.039 µM·h
10 | CC[C@@H]1/C=C(\C)C[C@H](C)C[C@H](OC)[C@H]2O[C@@](O)(C(=O)C(=O)N3CCCC[C@H]3C(=O)O[C@H](/C(C)=C/[C@@H]3CC[C@H](Cl)[C@H](OC)C3)[C@H](C)[C@@H](O)CC1=O)[C@H](C)C[C@@H]2OC [PIMECROLIMUS] | 10 | > 133 | > 133 | > 133 | concentration at 12 h [31]: 2 nM; Ratio [32]: 0.00019; AUC at 12 h [33]: 0.023 µM·h
11 | COC(=O)[C@H]1[C@H]2C[C@@H]3c4[nH]c5cc(OC)ccc5c4CCN3C[C@H]2C[C@@H](OC(=O)c2cc(OC)c(OC)c(OC)c2)[C@@H]1OC [RESERPINE] |  | 68.4 | > 133 | > 133 | Ratio [34]: 0; AUC at 24 h [35]: 0.014 µM·h; Ratio [36]: 0.00007; concentration at 24 h [37]: 1 nM
12 | CCC(C)(C)C(=O)O[C@H]1C[C@@H](C)C=C2C=C[C@H](C)[C@H](CC[C@@H]3C[C@@H](O)CC(=O)O3)[C@H]21 [SIMVASTATIN] |  | > 133 | > 133 | > 133 | concentration at 24 h [38]: 9 nM; AUC at 24 h [39]: 0.212 µM·h
